# Data from patent publication US8735411B2, “Macrocyclic benzofused pyrimidine derivatives” (AbbVie Inc., priority 2006, dated 2014).
# pKi: −log10 of the molar value.
# Key:
# neuropathic pain = assay: Analgesic effect against neuropathic pain: L5/L6 spinal nerve ligation (Chung model), von Frey mechanical allodynia; assay type: in vivo, rat; settings: 30 minutes before testing
# Protocol: Animals were prepared for testing, by use of a surgical procedure that induces neuropathic pain in one paw. Male Sprague Dawley rats were purchased from Charles River (Portage, Mich.). Prior to surgery, animals were housed in groups and maintained in a temperature-regulated environment. Following nerve ligation surgery, animals were housed in groups, and had access to food and water ad libitum.
# The L5 and L6 spinal nerves of anesthetized rats were tightly ligated in a manner described previously (see Kim and Chung, Pain (1992) vol. 50 pp. 355-363). An incision was made on the dorsal portion of the hip and the muscle was blunt-dissected to reveal the spinal processes. The L6 transverse process was removed, and the left side L5 and L6 spinal nerves were tightly ligated with 5.0 braided silk suture. The wound was cleaned, the membrane sewn with 4.0 dissolvable Vicryl suture and the skin closed with wound clips. The paw affected by the surgical procedure (the left paw) develops an allodynic response, a hypersensitivity to mechanical and other stimuli; neuropathic pain is assessed as an increased sensitivity in the surgically affected (left) allodynic paw compared to the control paw on the right side, and measured by comparing the response of the (left side) allodynic paw to the response of the unaffected right side control paw.
# For the assessment of neuropathic pain, mechanical allodynia in the affected paw of animals that had undergone spinal nerve ligation was evaluated using testing with von Frey filaments. As described previously by S. R. Chaplan, et al (“Quantitative assessment of tactile allodynia in the rat paw” J. Neurosci. Meth. (1994) vol. 53 pp. 55-63), two weeks following surgery rats were acclimated to a testing box constructed of plexiglass with a wire mesh floor which allowed access to the plantar surface of the animal's hindpaws. Using an Up-Down method (Dixon, Annu. Rev. Pharmacol. Toxicol. (1980) vol. 20, pp. 441-462; Chaplan et al. “Quantitative assessment of tactile allodynia in the rat paw” J. Neuroscience Methods (1994) vol. 53 pp. 55-63), von Frey filaments of increasing stiffness were applied to the plantar surface of the hindpaws and the withdrawal response of the animals was observed; for the surgically affected paw with neuropathic pain (the left side paw) the baseline level of allodynia has a withdrawal threshold of ≦4 g of pressure. […] The efficacy of the compound in reducing neuropathic pain at different doses is determined by comparing response in the surgery-affected paw versus the response in the control paw. This is expressed as the MPE (maximum percent effect), or 100 times the withdrawal threshold of the allodynic (left side) divided by the withdrawal threshold of the control (right side).
# inflammatory pain = assay: Analgesic effect against inflammatory pain: carrageenan-induced thermal hyperalgesia, hotbox assay; assay type: in vivo; settings: 100 micromole/kg i.p., 90 min after carrageenan, tested 30 min after dosing
# Protocol: To assess the effectiveness of representative compounds of the invention against acute model inflammatory pain, animals were tested in an acute model of carrageenan-induced thermal hyperalgesia (see for example, Honore, et al. Behavioural Brain Research 167 (2006) 355-364; Porreca, et al. Journal of Pharmacology and Experimental Therapeutics (2006) vol. 318 pp. 195-205). Carrageenan was injected into the test paw of the animal, and after 90 minutes, the test drug was administered by intraperitoneal dosing; the effect on thermal hyperalgesia was assessed in a hotbox assay which done 30 minutes after the intraperitoneal dosing of the test drug, and the MPE (maximal percent effect) reported by comparison to the control paw (not injected with carrageenan), according to 100 times the withdrawal latency of the carrageenan injected paw (in seconds) divided by the withdrawal latency of the control (not injected with carrageenan) paw.
# histamine H4 receptor [1] = molecular target: T1, histamine H4 receptor (Homo sapiens, UniProt Q9H3N8); assay: In vitro histamine H4 potency in FLIPR (Ca2+ flux, HEK-293 cells coexpressing Gαqi5); assay type: cell-based; design: expressed in transfected cells; settings: Kb for antagonists and inverse agonists, EC50 for partial agonists
# In short: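 Fluo-4-loaded cells read on FLIPR for intracellular Ca2+ rise after compound addition, with pre-addition fluorescence subtracted. Peak responses per concentration expressed as % of the full-agonist histamine response. Concentration–response fits give Kb for antagonists/inverse agonists and EC50 for partial agonists.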
# histamine H4 receptor [2] = molecular target: T1, histamine H4 receptor; assay: [3H]-histamine competition binding assay on membranes of transfected HEK-293 cells; design: expressed in transfected cells; host or cells: HEK-293 cells, transient transfection with pCINeo vector; membranes; settings: displacement of [3H]-histamine; Ki by Cheng-Prusoff equation; read-out: Potency
# Protocol: In this assay, membranes were prepared from HEK-293 cells transiently transfected with the pCINeo expression vector harboring the histamine H4 receptor by homogenization of the cells on ice in TE buffer (50 mM Tris-HCl buffer, pH 7.4, containing 5 mM EDTA), 1 mM benzamidine, 2 μg/ml aprotinin, 1 μg/ml leupeptin, and 1 μg/ml pepstatin. The homogenate was centrifuged at 40,000 g for 20 minutes at 4° C. This step was repeated, and the resulting pellet was resuspended in TE buffer. Aliquots were frozen at −70° C. until needed. On the day of assay, membranes were thawed and diluted with TE buffer. Competition radioligand binding assays were performed with increasing concentrations of test compound in the presence of [^3H]-histamine incubated at 25° C. for 1 hour in a total volume of 0.5 ml of 50 mM Tris, 5 mM EDTA, pH 7.4. All binding reactions were terminated by filtration under vacuum onto polyethylenimine (0.3%) presoaked Unifilters (PerkinElmer Life Sciences) or Whatman GF/B filters (Whatman, Clifton, N.J.) followed by three brief washes with 4 ml of ice-cold TE buffer. Bound radiolabel was determined by liquid scintillation counting. For all of the radioligand competition binding assays, IC50 values and Hill slopes were determined by Hill transformation of the data and Ki values were determined by the Cheng-Prusoff equation.
# [3] = system: pain in a surgical skin incision model; assay: Analgesic effect in surgical skin incision model, von Frey mechanical allodynia; assay type: in vivo, rat
# Protocol: This is a surgical skin incision model (Joshi, et al. Pain 123 (2006) 75-82). Animals (rats) were prepared for testing by subjecting them in a surgical procedure carried out under sterile conditions, where the plantaris muscle was elevated and incised longitudinally with the origin and insertion of the muscle remaining intact. The skin was then closed with two mattress sutures (e.g. 5-0 nylon sutures). After surgery, animals were allowed to recover on a warming plate and housed individually in cages with soft bedding. […] Animals were tested for mechanical allodynia using von Frey hair mechanical stimulation 2, 24, and 48 h after surgery as described for the Chung model.
Potency (histamine H4 receptor [1]) [nM],pKi (histamine H4 receptor [2]),Compound,MPE (neuropathic pain; 100 micromole/kg i.p.) [%],MPE (inflammatory pain) [%],MPE ([3]; 30 micromole/kg i.p.) [%],MPE ([3]; 100 micromole/kg i.p.) [%],MPE (neuropathic pain; 300 micromole/kg i.p.) [%]
15,8.10,"Nc1nc2c(c(N3CCNCC3)n1)CCCc1ccccc1-2 [Example 7, 4-Piperazin-1-yl-6,7-dihydro-5H-benzo[6,7]cyclohepta[1,2-d]pyrimidin-2-ylamine]",30,23,,,
6.6,8.30,"CN[C@@H]1CCN(c2nc(N)nc3c2CCCc2ccccc2-3)C1 [Example 6, 4-(3-(R)-Methylamino-pyrrolidin-1-yl)-6,7-dihydro-5H-benzo[6,7]cyclohepta[1,2-d]pyrimidin-2-ylamine]",,,,,
9.3,8.40,"CNC1CN(c2nc(N)nc3c2CCCc2ccccc2-3)C1 [Example 3, 4-(3-Methylamino-azetidin-1-yl)-6,7-dihydro-5H-benzo[6,7]cyclohepta[1,2-d]pyrimidin-2-ylamine]",36,41,21,69,78
